Data as given in patent publication US12151999B2, “Small molecule compounds having naphthylamine structure and application thereof” (Hangzhou PhecdaMed Co., Ltd., priority 2021, dated 2024).

Each compound was assayed on HEK293Tmtkeima cells (assay: Functional test of mitophagy inducer (mtKeima imaging, with or without CCCP-induced mitochondrial damage)). Settings: HEK293Tmtkeima cells, 5 uM or 10 uM CCCP to induce mitochondrial damage; number of cells in which damaged mitophagy occurs/number of all cells.
Assay type: cell-based, Human
Procedure: Group 1: Human embryonic kidney transformed cells HEK293Tmtkeima cells were treated with 0 μM, 1.25 μM, 2.5 μM, 5 μM and 10 μM CCCP respectively, and seeded in a 96-well black ELISA PLATE at 1.5*10^5 cells/ml, 100 μL per well. Compound I-2 was added after 25 hours, and 3 replicates were set. At 37° C., under 5% CO2 incubation conditions, photographs were taken every few hours with biotek cytation 5 for a total of 20 hours, with the bright field as the focusing channel, and 9 images were taken per hole, and the images were processed using the instrument software.
Group 2: Human embryonic kidney transformed cells HEK293Tmtkeima cells were seeded in a 96-well black ELISA PLATE at […], 100 μL per well; compounds I-1˜I-44 and UMI-77 were added after 25 hours, set up 3 replicates; under 37° C., 5% CO2 culture conditions, use biotek every few hours Cytation 5 was used to take photos, a total of 20 hours of shooting. In another group of cells under the same conditions, human embryonic kidney-transformed cells HEK293Tmtkeima cells were seeded in a 96-well black enzyme plate at 1.5*10^5 cells/ml, 100 μl per well; after 24 hours, 5 uM or 10 uM CCCP (Carbonyl cyanide) was first added 3-chlorophenylhydrazone) to induce mitochondrial damage, then add I-1˜I-44, UMI-77 1 hour later, set up 3 repetitions; under 37° C., 5% CO2 culture conditions, pictures were taken every few hours with biotek cytation 5, photographs were taken for 20 hours. Another group of human embryonic kidney transformed cells HEK293Tmtkeima cells was seeded at 1.5*10^5 cells/ml in 96-well black ELISA PLATE at 100 μl per well under the same conditions, 24 hours later 5 uM or 10 uM CCCP (Carbonyl cyanide 3-chlorophenylhydrazone) was first added to induce mitochondrial damage, after 1 hour then add I-1 to I-44, UMI-77 and set up 3 replicates. At 37° C., under 5% CO2 incubation conditions, pictures were taken every few hours with biotek cytation 5, photographs were taken for 20 hours, with the bright field as the focusing channel for both groups, and 9 images were taken per hole, and the images were processed using the instrument software.
In the case of `O=C(O)C[S+]([O-])c1cc(NS(=O)(=O)c2cccs2)c2ccccc2c1O` (stereo not shown) [Compound I-13-1], the “The ability of selection to induce autophagy in damaged mitochondria” value (from here on “The ability of selection”) is reported as “+++ (strong ability to selectively induce autophagy in damaged mitochondria (number of cells in which damaged mitophagy occurs/number of all cells >0.30))”.
For `O=C(O)C[S+]([O-])c1cc(NS(=O)(=O)c2ccc(OC(F)(F)F)cc2)c2ccccc2c1O` (stereo not shown) [Compound I-21-1], the “The ability of selection” value was “+++ (strong ability to selectively induce autophagy in damaged mitochondria (number of cells in which damaged mitophagy occurs/number of all cells >0.30))”.
With `O=C(O)C[S+]([O-])c1cc(NS(=O)(=O)c2ccc([N+](=O)[O-])cc2)c2ccccc2c1O` (stereo not shown) [Compound I-22-1] the “The ability of selection” value was “+ (weak ability to selectively induce autophagy in damaged mitochondria (number of cells in which damaged mitophagy occurs/number of all cells in the range of 0.1 to 0.2))”.
In the case of `O=C(O)C[S+]([O-])c1cc(N2CCN=S2(=O)c2ccc(Br)cc2)c2ccccc2c1O` (stereo not shown) [Compound I-27], the “The ability of selection” value is reported as “++ (moderate ability to selectively induce autophagy in damaged mitochondria (number of cells in which damaged mitophagy occurs/number of all cells in the range of 0.2 to 0.3))”.
`O=S(=O)(Cc1nn[nH]n1)c1cc(NS(=O)(=O)c2ccc(Br)cc2)c2ccccc2c1O` [Compound I-7-2] was tested, and the “The ability of selection” value was “+ (weak ability to selectively induce autophagy in damaged mitochondria (number of cells in which damaged mitophagy occurs/number of all cells in the range of 0.1 to 0.2))”.
In the case of `NC(=S)C[S+]([O-])c1cc(NS(=O)(=O)c2ccc(Br)cc2)c2ccccc2c1O` (stereo not shown) [Compound I-6], the “The ability of selection” value is reported as “+ (weak ability to selectively induce autophagy in damaged mitochondria (number of cells in which damaged mitophagy occurs/number of all cells in the range of 0.1 to 0.2))”.
`O=C(O)C[S+]([O-])c1cc(N(C2COC2)S(=O)(=O)c2ccc(Br)cc2)c2ccccc2c1O` (stereo not shown) [Compound I-4] was tested, and the “The ability of selection” value was “+ (weak ability to selectively induce autophagy in damaged mitochondria (number of cells in which damaged mitophagy occurs/number of all cells in the range of 0.1 to 0.2))”.
For `O=C(O)CS(=O)(=O)c1cc(NS(=O)(=O)c2ccc(C(F)(F)F)cc2)c2ccccc2c1O` [Compound I-14-2], the “The ability of selection” value was “++ (moderate ability to selectively induce autophagy in damaged mitochondria (number of cells in which damaged mitophagy occurs/number of all cells in the range of 0.2 to 0.3))”.
`CN=S(=O)(Nc1cc([S+]([O-])CC(=O)O)c(O)c2ccccc12)c1ccc(Br)cc1` (stereo not shown) [Compound I-25-1] was tested, and the “The ability of selection” value was “+++ (strong ability to selectively induce autophagy in damaged mitochondria (number of cells in which damaged mitophagy occurs/number of all cells >0.30))”.
`O=C(O)C[S+]([O-])c1cc(NS(=O)(=O)c2ccc(Oc3ccccc3)cc2)c2ccccc2c1O` (stereo not shown) [Compound I-16-1] was tested, and the “The ability of selection” value was “++ (moderate ability to selectively induce autophagy in damaged mitochondria (number of cells in which damaged mitophagy occurs/number of all cells in the range of 0.2 to 0.3))”.
For `Cc1noc(C)c1S(=O)(=O)Nc1cc([S+]([O-])CC(=O)O)c(O)c2ccccc12` (stereo not shown) [Compound I-37], the “The ability of selection” value was “++ (moderate ability to selectively induce autophagy in damaged mitochondria (number of cells in which damaged mitophagy occurs/number of all cells in the range of 0.2 to 0.3))”.
In the case of `O=C(O)C[S+]([O-])c1cc(NS(=O)(=O)c2ccc(C3CC3)cc2)c2ccccc2c1O` (stereo not shown) [Compound I-20-1], the “The ability of selection” value is reported as “++ (moderate ability to selectively induce autophagy in damaged mitochondria (number of cells in which damaged mitophagy occurs/number of all cells in the range of 0.2 to 0.3))”.
`O=C(O)C[S+]([O-])c1cc(NS(=O)(=O)c2cccc(F)c2)c2ccccc2c1O` (stereo not shown) [Compound I-24-1] was tested, and the “The ability of selection” value was “+ (weak ability to selectively induce autophagy in damaged mitochondria (number of cells in which damaged mitophagy occurs/number of all cells in the range of 0.1 to 0.2))”.
For `O=C(O)C[S+]([O-])c1cc(NS(=O)(=O)c2ccc(Cl)c(Cl)c2)c2ccccc2c1O` (stereo not shown) [Compound I-17-1], the “The ability of selection” value was “+++ (strong ability to selectively induce autophagy in damaged mitochondria (number of cells in which damaged mitophagy occurs/number of all cells >0.30))”.
In the case of `COc1ccc(S(=O)(=O)Nc2cc([S+]([O-])CC(=O)O)c(O)c3ccccc23)cc1` (stereo not shown) [Compound I-15-1], the “The ability of selection” value is reported as “+ (weak ability to selectively induce autophagy in damaged mitochondria (number of cells in which damaged mitophagy occurs/number of all cells in the range of 0.1 to 0.2))”.
In the case of `O=C(O)CS(=O)(=O)c1cc(NS(=O)(=O)c2cccs2)c2ccccc2c1O` [Compound I-13-2], the “The ability of selection” value is reported as “++ (moderate ability to selectively induce autophagy in damaged mitochondria (number of cells in which damaged mitophagy occurs/number of all cells in the range of 0.2 to 0.3))”.
In the case of `O=C(O)C[S+]([O-])c1cc(N2CCCN=S2(=O)c2ccc(Br)cc2)c2ccccc2c1O` (stereo not shown) [Compound I-28], the “The ability of selection” value is reported as “+ (weak ability to selectively induce autophagy in damaged mitochondria (number of cells in which damaged mitophagy occurs/number of all cells in the range of 0.1 to 0.2))”.
In the case of `Cn1cc(S(=O)(=O)Nc2cc([S+]([O-])CC(=O)CO)c(O)c3ccccc23)cn1` (stereo not shown) [Compound I-36], the “The ability of selection” value is reported as “++ (moderate ability to selectively induce autophagy in damaged mitochondria (number of cells in which damaged mitophagy occurs/number of all cells in the range of 0.2 to 0.3))”.
`O=C(O)CS(=O)(=O)c1cc(NS(=O)(=O)c2cccc(-c3ccccc3)c2)c2ccccc2c1O` [Compound I-23-2] was tested, and the “The ability of selection” value was “++ (moderate ability to selectively induce autophagy in damaged mitochondria (number of cells in which damaged mitophagy occurs/number of all cells in the range of 0.2 to 0.3))”.
`CN=S(=O)(c1ccc(Br)cc1)N(C)c1cc([S+]([O-])CC(=O)O)c(O)c2ccccc12` (stereo not shown) [Compound I-26] was tested, and the “The ability of selection” value was “++ (moderate ability to selectively induce autophagy in damaged mitochondria (number of cells in which damaged mitophagy occurs/number of all cells in the range of 0.2 to 0.3))”.
`COP(=O)(Nc1cc([S+]([O-])CC(=O)O)c(O)c2ccccc12)c1ccc(Br)cc1` (stereo not shown) [Compound I-33] was tested, and the “The ability of selection” value was “++ (moderate ability to selectively induce autophagy in damaged mitochondria (number of cells in which damaged mitophagy occurs/number of all cells in the range of 0.2 to 0.3))”.
For `O=C(O)C[S+]([O-])c1cc(NS(=O)(=O)c2ccc(N3CCCC3)cc2)c2ccccc2c1O` (stereo not shown) [Compound I-18-1], the “The ability of selection” value was “+ (weak ability to selectively induce autophagy in damaged mitochondria (number of cells in which damaged mitophagy occurs/number of all cells in the range of 0.1 to 0.2))”.
For `NC(=O)C[S+]([O-])c1cc(NS(=O)(=O)c2ccc(Br)cc2)c2ccccc2c1O` (stereo not shown) [Compound I-5], the “The ability of selection” value was “+ (weak ability to selectively induce autophagy in damaged mitochondria (number of cells in which damaged mitophagy occurs/number of all cells in the range of 0.1 to 0.2))”.
With `O=C(O)C[S+]([O-])c1cc(NC(=O)c2cccc(Br)c2)c2ccccc2c1O` (stereo not shown) [Compound I-35-1] the “The ability of selection” value was “+ (weak ability to selectively induce autophagy in damaged mitochondria (number of cells in which damaged mitophagy occurs/number of all cells in the range of 0.1 to 0.2))”.
For `O=C(O)C[S+]([O-])c1cc(N(C2CC2)S(=O)(=O)c2ccc(Br)cc2)c2ccccc2c1O` (stereo not shown) [Compound I-3], the “The ability of selection” value was “++ (moderate ability to selectively induce autophagy in damaged mitochondria (number of cells in which damaged mitophagy occurs/number of all cells in the range of 0.2 to 0.3))”.
In the case of `O=C(O)CS(=O)(=O)c1cc(NS(=O)(=O)c2ccc(Br)cc2)c2ccccc2c1O` [Compound I-42], the “The ability of selection” value is reported as “+ (weak ability to selectively induce autophagy in damaged mitochondria (number of cells in which damaged mitophagy occurs/number of all cells in the range of 0.1 to 0.2))”.
In the case of `N#Cc1ccc2c(O)c([S+]([O-])CC(=O)O)cc(NS(=O)(=O)c3ccc(Br)cc3)c2c1` (stereo not shown) [Compound I-31], the “The ability of selection” value is reported as “+ (weak ability to selectively induce autophagy in damaged mitochondria (number of cells in which damaged mitophagy occurs/number of all cells in the range of 0.1 to 0.2))”.
With `O=C(O)C[S+]([O-])c1cc(NS(=O)(=O)c2ccc(Br)cc2)c2cc(Br)ccc2c1O` (stereo not shown) [Compound I-29] the “The ability of selection” value was “+++ (strong ability to selectively induce autophagy in damaged mitochondria (number of cells in which damaged mitophagy occurs/number of all cells >0.30))”.
